Data on seven compounds can be found in USRE33699E, “Growth hormone-releasing factor analogs” (International Minerals & Chemical Corp., priority 1990, dated 1991).

For the experiment, the system named is rat pituitary cells. The experiment is described as follows: Bioassay of hGRF analogs: stimulation of growth hormone release in rat pituitary cells in tissue culture. It is filed as cell-based. The note with it: for Dose Needed to Release 2.01 μg/ml of GH: 2.01 μg/ml = GH released at the ED50 of hGRF; for Dose Needed to Release 2.01 μg/ml of GH / Relative Maximum Activity (% of hGRF): from ALLFIT curves; for Potency: (ED50 of hGRF)/(Dose required to give same response as ED50 of hGRF). The source says:
The assay for biological activity, which is based on the ability to stimulate release of growth hormone in rat pituitary cells in tissue culture, has been described in detail (Culler, M. D.; Kenjo, T.: Obara, N.; Arimuar, A., Stimulation of cAMP. Accumulation by Human Pancreatic GH-Releasing Factor(1-44). Am. J. Physiol. 1984, 247 (Endocrinol.Metab. 10). E609-E615.
ALLFIT, the 4-parameter logistic curve fitting program available from the Biomedical Computer Technology Information Center, Vanderbilt Medical Center, Nashville Tenn., was used to determine ED50 and maximal stimulated values from the data. In several instances, the amount of GH released reached a maximum value and decreased with further increasing doses of the hGRF analogs. To simplify the data analysis, these values were not used in the calculations. The calculated maximal responses, the doses of the analog required to release the amount of GH released at the ED50 of the standard (hGRF) and the potencies of the analogs relative to hGRF, are given in Table 2. Generally all novel analogs were fully active and were able to stimulate the release of growth hormone with maximal values of GH release being within 80% of the value for natural hGRF.

Structures are written as SMILES. Square brackets hold non-standard residues; d marks the D form. Peptide text beside a SMILES is read from it. Nle = CCCC[C@H](N)C(=O)O

With `CCCC[C@H](NC(=O)[C@@H](NC(=O)[C@H](CC(N)=O)NC(=O)[C@H](CCC(N)=O)NC(=O)[C@H](CC(C)C)NC(=O)[C@H](CC(C)C)NC(=O)[C@H](CCCCN)NC(=O)[C@H](CCCNC(=N)N)NC(=O)[C@H](C)NC(=O)[C@H](CO)NC(=O)[C@H](CC(C)C)NC(=O)[C@H](CCC(N)=O)NC(=O)CNC(=O)[C@H](CC(C)C)NC(=O)[C@@H](NC(=O)[C@H](CCCCN)NC(=O)[C@H](CCCNC(=N)N)NC(=O)[C@H](Cc1ccc(O)cc1)NC(=O)[C@H](CO)NC(=O)[C@H](CC(N)=O)NC(=O)[C@@H](NC(=O)[C@H](Cc1ccccc1)NC(=O)[C@@H](NC(=O)[C@H](C)NC(=O)[C@H](CC(=O)O)NC(=O)[C@H](C)NC(=O)[C@@H](N)Cc1ccc(O)cc1)[C@@H](C)CC)[C@@H](C)O)C(C)C)[C@@H](C)CC)C(=O)N[C@@H](CO)C(=O)N[C@@H](CCCNC(=N)N)C(=O)N[C@@H](CCC(N)=O)C(=O)N[C@@H](CCC(N)=O)C(N)=O` [[Asn^25, Nle^27]-hGRF(1-31)--NH2, [Asn^25,Nle^27]-hGRF(1-31)--NH2] (H-YADAIFTNSYRKVLGQLSARKLLQNI[Nle]SRQQ-NH2), the “Dose Needed to Release 2.01 μg/ml of GH” value is listed as 0.12 nM, the Potency stood at 267% and the “Relative Maximum Activity (% of hGRF)” value is 96 % of hGRF.

As to `CC[C@H](C)[C@H](NC(=O)[C@H](C)NC(=O)[C@H](CC(=O)O)NC(=O)[C@H](C)NC(=O)[C@@H](N)Cc1ccc(O)cc1)C(=O)N[C@@H](Cc1ccccc1)C(=O)N[C@H](C(=O)N[C@@H](CC(N)=O)C(=O)N[C@@H](CO)C(=O)N[C@@H](Cc1ccc(O)cc1)C(=O)N[C@@H](CCCNC(=N)N)C(=O)N[C@@H](CCCCN)C(=O)N[C@H](C(=O)N[C@@H](CC(C)C)C(=O)NCC(=O)N[C@@H](CCC(N)=O)C(=O)N[C@@H](CC(C)C)C(=O)N[C@@H](CO)C(=O)N[C@@H](C)C(=O)N[C@@H](CCCNC(=N)N)C(=O)N[C@@H](CCCCN)C(=O)N[C@@H](CC(C)C)C(=O)N[C@@H](CC(C)C)C(=O)N[C@@H](CCC(N)=O)C(=O)N[C@@H](CC(=O)O)C(=O)N[C@H](C(=O)N[C@@H](CCSC)C(=O)N[C@@H](CO)C(=O)N[C@@H](CCCNC(=N)N)C(=O)N[C@@H](CCC(N)=O)C(=O)N[C@@H](CCC(N)=O)C(=O)NCC(=O)N[C@@H](CCC(=O)O)C(=O)N[C@@H](CO)C(=O)N[C@@H](CC(N)=O)C(=O)N[C@@H](CCC(N)=O)C(=O)N[C@@H](CCC(=O)O)C(=O)N[C@@H](CCCNC(=N)N)C(=O)NCC(=O)N[C@@H](C)C(=O)N[C@@H](CCCNC(=N)N)C(=O)N[C@@H](C)C(=O)N[C@@H](CCCNC(=N)N)C(=O)N[C@@H](CC(C)C)C(N)=O)[C@@H](C)CC)C(C)C)[C@@H](C)O` [hGRF(1-44)--NH2, reference compound], the “Dose Needed to Release 2.01 μg/ml of GH” value was 0.32 nM, the Potency is given as 100% and the “Relative Maximum Activity (% of hGRF)” value is 100 % of hGRF.

Turning to `CCCC[C@H](NC(=O)[C@@H](NC(=O)[C@H](CC(=O)O)NC(=O)[C@H](CCC(N)=O)NC(=O)[C@H](CC(C)C)NC(=O)[C@H](CC(C)C)NC(=O)[C@H](CCCCN)NC(=O)[C@H](CCCNC(=N)N)NC(=O)[C@H](C)NC(=O)[C@H](CO)NC(=O)[C@H](CC(C)C)NC(=O)[C@H](CCC(N)=O)NC(=O)CNC(=O)[C@H](CC(C)C)NC(=O)[C@@H](NC(=O)[C@H](CCCCN)NC(=O)[C@H](CCCNC(=N)N)NC(=O)[C@H](Cc1ccc(O)cc1)NC(=O)[C@H](CO)NC(=O)[C@H](CC(N)=O)NC(=O)[C@@H](NC(=O)[C@H](Cc1ccccc1)NC(=O)[C@@H](NC(=O)[C@H](C)NC(=O)[C@H](CC(N)=O)NC(=O)[C@H](C)NC(=O)[C@@H](N)Cc1ccc(O)cc1)[C@@H](C)CC)[C@@H](C)O)C(C)C)[C@@H](C)CC)C(=O)N[C@@H](CO)C(=O)N[C@@H](CCCNC(=N)N)C(=O)N[C@@H](CCC(N)=O)C(=O)N[C@@H](CCC(N)=O)C(N)=O` [[Asn^3, Nle^27]-hGRF(1-31)--NH2] (H-YANAIFTNSYRKVLGQLSARKLLQDI[Nle]SRQQ-NH2), the “Dose Needed to Release 2.01 μg/ml of GH” value is given as 0.58 nM, the Potency was 55% and the “Relative Maximum Activity (% of hGRF)” value is 93 % of hGRF.

On to `CCCC[C@H](NC(=O)[C@@H](NC(=O)[C@H](CC(=O)O)NC(=O)[C@H](CCC(N)=O)NC(=O)[C@H](CC(C)C)NC(=O)[C@H](CC(C)C)NC(=O)[C@H](CCCCN)NC(=O)[C@H](CCCNC(=N)N)NC(=O)[C@H](C)NC(=O)[C@H](CO)NC(=O)[C@H](CC(C)C)NC(=O)[C@H](CCC(N)=O)NC(=O)CNC(=O)[C@H](CC(C)C)NC(=O)[C@@H](NC(=O)[C@H](CCCCN)NC(=O)[C@H](CCCNC(=N)N)NC(=O)[C@H](Cc1ccc(O)cc1)NC(=O)[C@H](CO)NC(=O)[C@H](CC(=O)O)NC(=O)[C@@H](NC(=O)[C@H](Cc1ccccc1)NC(=O)[C@@H](NC(=O)[C@H](C)NC(=O)[C@H](CC(=O)O)NC(=O)[C@H](C)NC(=O)[C@@H](N)Cc1ccc(O)cc1)[C@@H](C)CC)[C@@H](C)O)C(C)C)[C@@H](C)CC)C(=O)N[C@@H](CO)C(=O)N[C@@H](CCCNC(=N)N)C(=O)N[C@@H](CCC(N)=O)C(=O)N[C@@H](CCC(N)=O)C(N)=O` [[Asp^8, Nle^27]-hGRF(1-31)--NH2, [Asp^8,Nle^27]-hGRF(1-31)--NH2] (H-YADAIFTDSYRKVLGQLSARKLLQDI[Nle]SRQQ-NH2), for which the “Dose Needed to Release 2.01 μg/ml of GH” value is reported as 0.39 nM, the Potency was 82% and the “Relative Maximum Activity (% of hGRF)” value is given as 109 % of hGRF.

Take `CCCC[C@H](NC(=O)[C@@H](NC(=O)[C@H](CC(N)=O)NC(=O)[C@H](CCC(N)=O)NC(=O)[C@H](CC(C)C)NC(=O)[C@H](CC(C)C)NC(=O)[C@H](CCCCN)NC(=O)[C@H](CCCNC(=N)N)NC(=O)[C@H](C)NC(=O)[C@H](CO)NC(=O)[C@H](CC(C)C)NC(=O)[C@H](CCC(N)=O)NC(=O)CNC(=O)[C@H](CC(C)C)NC(=O)[C@@H](NC(=O)[C@H](CCCCN)NC(=O)[C@H](CCCNC(=N)N)NC(=O)[C@H](Cc1ccc(O)cc1)NC(=O)[C@H](CO)NC(=O)[C@H](CC(N)=O)NC(=O)[C@@H](NC(=O)[C@H](Cc1ccccc1)NC(=O)[C@@H](NC(=O)[C@H](C)NC(=O)[C@H](CC(N)=O)NC(=O)[C@H](C)NC(=O)[C@@H](N)Cc1ccc(O)cc1)[C@@H](C)CC)[C@@H](C)O)C(C)C)[C@@H](C)CC)C(=O)N[C@@H](CO)C(=O)N[C@@H](CCCNC(=N)N)C(=O)N[C@@H](CCC(N)=O)C(=O)N[C@@H](CCC(N)=O)C(N)=O` [[Asn^3, Asn^25, Nle^27]-hGRF(1-31)--NH2, [Asn^3,Asn^25,Nle^27]-hGRF (1-31)--NH2] (H-YANAIFTNSYRKVLGQLSARKLLQNI[Nle]SRQQ-NH2): the “Dose Needed to Release 2.01 μg/ml of GH” value was 1.54 nM, the Potency is 21% and the “Relative Maximum Activity (% of hGRF)” value is recorded as 101 % of hGRF.

Turning to `CCCC[C@H](NC(=O)[C@@H](NC(=O)[C@H](CC(=O)O)NC(=O)[C@H](CCC(N)=O)NC(=O)[C@H](CC(C)C)NC(=O)[C@H](CC(C)C)NC(=O)[C@H](CCCCN)NC(=O)[C@H](CCCNC(=N)N)NC(=O)[C@H](C)NC(=O)[C@H](CO)NC(=O)[C@H](CC(C)C)NC(=O)[C@H](CCC(N)=O)NC(=O)CNC(=O)[C@H](CC(C)C)NC(=O)[C@@H](NC(=O)[C@H](CCCCN)NC(=O)[C@H](CCCNC(=N)N)NC(=O)[C@H](Cc1ccc(O)cc1)NC(=O)[C@H](CO)NC(=O)[C@H](CC(=O)O)NC(=O)[C@@H](NC(=O)[C@H](Cc1ccccc1)NC(=O)[C@@H](NC(=O)[C@H](C)NC(=O)[C@H](CC(N)=O)NC(=O)[C@H](C)NC(=O)[C@@H](N)Cc1ccc(O)cc1)[C@@H](C)CC)[C@@H](C)O)C(C)C)[C@@H](C)CC)C(=O)N[C@@H](CO)C(=O)N[C@@H](CCCNC(=N)N)C(=O)N[C@@H](CCC(N)=O)C(=O)N[C@@H](CCC(N)=O)C(N)=O` [[Asn^3, Asp^8, Nle^27]-hGRF(1-31)--NH2, [Asn^3,Asp^8,Nle^27]-hGRF(1-31)--NH2] (H-YANAIFTDSYRKVLGQLSARKLLQDI[Nle]SRQQ-NH2), the “Dose Needed to Release 2.01 μg/ml of GH” value worked out at 6.74 nM, the Potency turned out to be 3% and the “Relative Maximum Activity (% of hGRF)” value is listed as 107 % of hGRF. Moreover, the Potency (Asp^8, Nle^27 ]) is given as 5%.

For `CCCC[C@H](NC(=O)[C@@H](NC(=O)[C@H](CC(N)=O)NC(=O)[C@H](CCC(N)=O)NC(=O)[C@H](CC(C)C)NC(=O)[C@H](CC(C)C)NC(=O)[C@H](CCCCN)NC(=O)[C@H](CCCNC(=N)N)NC(=O)[C@H](C)NC(=O)[C@H](CO)NC(=O)[C@H](CC(C)C)NC(=O)[C@H](CCC(N)=O)NC(=O)CNC(=O)[C@H](CC(C)C)NC(=O)[C@@H](NC(=O)[C@H](CCCCN)NC(=O)[C@H](CCCNC(=N)N)NC(=O)[C@H](Cc1ccc(O)cc1)NC(=O)[C@H](CO)NC(=O)[C@H](CC(=O)O)NC(=O)[C@@H](NC(=O)[C@H](Cc1ccccc1)NC(=O)[C@@H](NC(=O)[C@H](C)NC(=O)[C@H](CC(N)=O)NC(=O)[C@H](C)NC(=O)[C@@H](N)Cc1ccc(O)cc1)[C@@H](C)CC)[C@@H](C)O)C(C)C)[C@@H](C)CC)C(=O)N[C@@H](CO)C(=O)N[C@@H](CCCNC(=N)N)C(=O)N[C@@H](CCC(N)=O)C(=O)N[C@@H](CCC(N)=O)C(N)=O` [[Asn^3,Asp^8,Asn^25,Nle^27]-hGRF(1-31)--NH2] (H-YANAIFTDSYRKVLGQLSARKLLQNI[Nle]SRQQ-NH2), the “Dose Needed to Release 2.01 μg/ml of GH” value was 12.05 nM, the Potency is 5% and the “Relative Maximum Activity (% of hGRF)” value is 94 % of hGRF. Further, for the setting “Asp^8, Asn^25, Nle^27 ]”, the Potency was 3%.
